Results on four compounds are retold here after patent US20020039601A1, “Cancer cell growth suppressor and cell differentiation inducer and method for manufacturing the same” (priority 2000, published 2002).

Assay [1] has as its system HL-60 cells. The settings on record: HL60 cells, cited from earlier work.
Assay [2] has as its system HL-60 cells. Put plainly: Human leukemia differentiation inducing test (NBT reducing ability). Type of assay: cell-based. The settings on record: HL60 cells. The method, then:
The differentiation inducing test using HL-60 cells, which are leukemia cells, was performed according to “New Cultured Cell Experiment Method” (written by Toshio Kuroki, on pages 286-289, published by Yodosha), “Jpn. J-Cancer” (Res. 81, 807-812, August 1990), and “Clinical Test Method” written by Izumi Kamei, page 358, published by Kinbara Shuppan) to examine the differentiation inducing ability with the NBT reducing ability as an index.
It is known that for HL60 cells, differentiation is induced by retinoic acid, DMSO or active type vitamin D3. Active type vitamin D3 (medicine for external use, treatment of psoriasis) and all-trans retinoic acid (ATRA) are used as oral medicine for treating leukemia. When leukemia cells differentiate, azurophile granules in the cells reduce. If they differentiate into granulocyte, cell nucleus segment. […] As a convenient marker for differentiation induction of leukemia cells, one method is to measure nitro blune tetrazolium (NBT) reducing ability.
The NBT test uses the fact that when promyelocytic leukemia cells such as HL60 differentiate into monocyte/macrophage, production of active oxygen increases. That is to say, formation of insoluble formozan produced when NBT is reduced due to oxidation/reduction reaction by the active oxygen is used as a marker of differentiation. Active vitamin D3 has a differentiating ability at 10^−9 to 10^−6 M, ATRA at 10^−8 to 10^−6 M, and DMSO at 1.2 to 1.3%. At the respective maximum concentrations, they can differentiate by about 90% or over. Judging by the NBT reducing ability, the results were examined.

The subject of assay [3] is carcinoma strain of the colon (Colo201 cells). Put plainly: CD-DST cancer cell growth suppression test, Colo201. The settings on record: 67.6 μg of capsanthin (FIG. 6). Type of assay: cell-based, human. The source says: Employing a drug sensitivity test method (CD-DST method), Toma-pi water-soluble component condensed liquid of different concentrations was examined for growth suppressing effect at the contact time set at seven days.
The CD-DST method herein referred to is a well-known experiment method called a collagen gel drop method, and its steps are shown in FIG. 1. Its details are also described in “Establishment of Collagen Gel Droplet Embedded Culture Drug Sensitivity Test (CD-DST) and consideration about its clinical utility” in “Cancer and Chemical Treatment” (published in 1995, vol.22, 1933-1939 pages).
As a method of cultivating cancer cells, a human cancer cell first generation cultivation system kit (Plymaster made by Nitta Gelatine Co.), was used and cells were cultivated according to a normal method (reference document J. Jpn. Soc. Cancer Ther. 29(7):946-956, 1994).
The growth suppressing effect was judged in terms of suppressing percentage (T/C%) which is the ratio of a treated group to an untreated group (control group). Units μg and mg shown in FIGS. 2-7 show the concentrations of Toma-pi water-soluble components in terms of the weight of Toma-pi powder (dried powder of Capsicum Annuum L.Var.grossumn) used as raw material for water extracting. It is hereinbelow referred to as “converted concentration of Toma-pi water-soluble components”.

Turning to `CC1=C(/C=C/C(C)=C/C=C/C(C)=C/C(=O)O)C(C)(C)CCC1` [ATRA, all-trans retinoic acid], the “concentration having differentiating ability” value in assay [1] is reported as 10^−8 to 10^−6 M.

In the case of `CC1=C(/C=C/C(C)=C/C=C/C(C)=C/C=C/C=C(C)/C=C/C=C(C)/C=C/C(=O)[C@]2(C)C[C@@H](O)CC2(C)C)C(C)(C)C[C@H](O)C1` [capsanthin], the “active type vitamin D3 concentration from which differentiation was promoted in combination” value in assay [2] (capsanthin 200 μg with active type vitamin D3 (FIG. 9)) is at least 75 pM. Moreover, the “active type vitamin D3 concentration at which differentiation was promoted in combination” value in assay [2] (capsanthin 400 μg with active type vitamin D3 (FIG. 9)) is listed as 10^−11 M. In assay [3], this compound registered a growth suppression of 24%.

In the case of `C[S+](C)[O-]` [DMSO], the “concentration having differentiating ability” value in assay [1] is 1.2 to 1.3%.

Regarding active type vitamin D3, the NBT reducing rate entry in assay [2] (10^−9 M) is listed as “about 5%”. Also, the differentiating ability result in assay [1] (10^−10 M, alone) is “does not ordinarily show any differentiating ability”. The “concentration having differentiating ability” value in assay [1] was 10^−9 to 10^−6 M.
